#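 Tested at 5 concentrations; 48 h exposure; 96-well plates; endpoints linearly interpolated, else capped at highest concentration. The concentration for full growth arrest is given as TGI.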
# Assays:
# Experiment in all cases: NCI anticancer screen, dose series, 48 h
# OVCAR-3 ovarian = tested on: OVCAR-3 ovarian
# SNB-75 CNS = tested on: SNB-75 CNS
# COLO 205 colon = tested on: COLO 205 colon
# T-47D breast = tested on: T-47D breast
# CCRF-CEM leukemia = tested on: CCRF-CEM leukemia
# BT-549 breast = tested on: BT-549 breast
# SF-268 CNS = tested on: SF-268 CNS
# K-562 leukemia = tested on: K-562 leukemia
# ACHN renal = tested on: ACHN renal
# NCI-H23 lung = tested on: NCI-H23 lung
# HOP-62 NSCLC = tested on: HOP-62 NSCLC
# NCI-H522 lung = tested on: NCI-H522 lung
# PC-3 prostate = tested on: PC-3 prostate
# DU-145 prostate = tested on: DU-145 prostate
# KM12 colon = tested on: KM12 colon
# NCI/ADR-RES ovarian = tested on: NCI/ADR-RES ovarian
# SK-MEL-5 melanoma = tested on: SK-MEL-5 melanoma
# LOX IMVI melanoma = tested on: LOX IMVI melanoma
# RXF 393 renal = tested on: RXF 393 renal
# MCF7 breast = tested on: MCF7 breast
smiles,measurement,setting,value
COc1cc(-c2coc3c(OC)c(OC4OC(COC5OC(C)C(O)C(O)C5O)C(O)C(O)C4O)c(OC)c(O)c3c2=O)cc(C)c1O (stereo not given),TGI,OVCAR-3 ovarian,47.2 µM
same,TGI,SNB-75 CNS,69.6 µM
same,TGI,COLO 205 colon,34.9 µM
same,TGI,T-47D breast,61.4 µM
same,TGI,CCRF-CEM leukemia,> 100 µM
same,TGI,BT-549 breast,45.4 µM
same,TGI,SF-268 CNS,62.2 µM
same,TGI,K-562 leukemia,34.6 µM
same,TGI,ACHN renal,52.9 µM
same,TGI,NCI-H23 lung,32.4 µM
same,TGI,HOP-62 NSCLC,81.9 µM
same,TGI,NCI-H522 lung,34.7 µM
same,TGI,PC-3 prostate,74.1 µM
same,TGI,DU-145 prostate,52.7 µM
same,TGI,KM12 colon,29.3 µM
same,TGI,NCI/ADR-RES ovarian,52.5 µM
same,TGI,SK-MEL-5 melanoma,26.5 µM
same,TGI,LOX IMVI melanoma,45.3 µM
same,TGI,RXF 393 renal,32.5 µM
same,TGI,MCF7 breast,47.4 µM
